# Measurements taken from article PMC12624743 (ACS Infectious Diseases, 2025).
# Key:
# [1] = system: N. gonorrhoeae FA1090E-5 (GyrA^D90N/ParC^D86N); experiment: MIC by agar dilution, GyrA^D90N/ParC^D86N strain; assay type: cell-based, Neisseria gonorrhoeae
# Description: This strain was designated FA1090E-5 (GyrA^D90N/ParC^D86N).
# Minimum inhibitory concentration (MIC) of test compounds was determined by an agar dilution method, the reference testing method for N. gonorrhoeae according to the standards of the Clinical and Laboratory Standards Institute and the CDC.
# [2] = molecular target: T1, N. gonorrhoeae gyrase GyrA^S91F/D95G (Neisseria gonorrhoeae, UniProt P48371, D95G/S91F); experiment: Gyrase-catalyzed DNA supercoiling assay, GyrA^S91F/D95G; assay type: biochemical; settings: read-out: IC50, inhibition of DNA supercoiling
# T1 construct: His; made in house
# Description: All proteins were His-tagged. N. gonorrhoeae WT gyrase (GyrA, GyrB) and topoisomerase IV (ParC, ParE) subunits as well as mutant GyrA^D90N, GyrA^A92T, GyrA^S91F, and GyrA^S91F/D95G gyrase and ParC^D86N and ParC^S88P topoisomerase IV were prepared as described previously. , N. gonorrhoeae mutant GyrA^D95G gyrase and mutant ParC^S87N and ParC^E91G topoisomerase IV were generated using a QuickChange II XL site-directed mutagenesis kit (Agilent Technologies) with custom primers for the desired mutations. […] The identities of all constructs were confirmed by DNA sequencing, and all enzymes were stored at −80 °C. In all assays, N. gonorrhoeae gyrase or topoisomerase IV was used as a 1:1 GyrA:GyrB or ParC:ParE mixture, respectively, and the stated enzyme concentration reflects that of the holoenzyme (A2B2).
# Samples were mixed with 2 μL of loading dye [60% sucrose, 10 mM Tris–HCl (pH 7.9), 0.5% bromophenol blue, and 0.5% xylene cyanol FF] and incubated at 45 °C for 2 min before being subjected to electrophoresis on 1% agarose gels in 100 mM Tris-borate (pH 8.3) and 2 mM EDTA. […] DNA bands were visualized with medium-range ultraviolet light and quantified using an Alpha Innotech digital imaging system (Protein Simple). DNA supercoiling was monitored by the conversion of relaxed to supercoiled plasmid.
# [3] = system: WT N. gonorrhoeae topoisomerase IV; experiment: Topoisomerase IV-catalyzed DNA decatenation assay, WT; assay type: biochemical, Neisseria gonorrhoeae; settings: decatenation IC50 vs supercoiling IC50, WT enzymes
# Description: All proteins were His-tagged. N. gonorrhoeae WT gyrase (GyrA, GyrB) and topoisomerase IV (ParC, ParE) subunits as well as mutant GyrA^D90N, GyrA^A92T, GyrA^S91F, and GyrA^S91F/D95G gyrase and ParC^D86N and ParC^S88P topoisomerase IV were prepared as described previously. , N. gonorrhoeae mutant GyrA^D95G gyrase and mutant ParC^S87N and ParC^E91G topoisomerase IV were generated using a QuickChange II XL site-directed mutagenesis kit (Agilent Technologies) with custom primers for the desired mutations. Mutant N. gonorrhoeae GyrA and ParC subunits were expressed and purified as described by Ashley et al. with the following modifications to optimize protein expression and lysis: (1) GyrA^D95G was expressed for 2.5 h and ParC^S87N and ParC^E91G were expressed for 3 h before harvesting, and (2) cells were lysed by sonication using a digital sonifier (Branson). The identities of all constructs were confirmed by DNA sequencing, and all enzymes were stored at −80 °C. In all assays, N. gonorrhoeae gyrase or topoisomerase IV was used as a 1:1 GyrA:GyrB or ParC:ParE mixture, respectively, and the stated enzyme concentration reflects that of the holoenzyme (A2B2). […]
# [4] = molecular target: T2, N. gonorrhoeae gyrase GyrA^D95G (Neisseria gonorrhoeae, UniProt P48371, D95G); experiment: DNA cleavage assay, GyrA^D95G gyrase; assay type: biochemical
# T2 construct: His; made in house
# Description: Some experiments replaced MgCl2 with an equivalent concentration of CaCl2 (10 mM), or 1.5 mM ATP was added to assay mixtures.
# Reactions were incubated at 37 °C for 30 min with WT and mutant (GyrA^D90N, GyrA^A92T, GyrA^S91F, GyrA^D95G, or GyrA^S91F/D95G) N. gonorrhoeae gyrase, 10 min with WT N. gonorrhoeae topoisomerase IV, and 20 min with mutant (ParC^D86N, ParC^S88P, ParC^S87N, or ParC^E91G) N. gonorrhoeae topoisomerase IV. Enzyme-DNA cleavage complexes were trapped by adding 2 μL of 5% SDS followed by 2 μL of 250 mM EDTA (pH 8.0). Proteinase K was added (2 μL of a 0.8 mg/mL solution), and reaction mixtures were incubated at 45 °C for 30 min to digest the enzyme. Samples were mixed with 2 μL of loading buffer and heated at 45 °C for 2 min prior to electrophoresis in 1% agarose gels in 40 mM Tris-acetate (pH 8.3), and 2 mM EDTA containing 0.5 μg/mL ethidium bromide. DNA bands were visualized by midrange ultraviolet light and quantified using an Alpha Innotech digital imaging system (Protein Simple). Single-stranded DNA cleavage was monitored by the conversion of negatively supercoiled to nicked plasmid molecules.
# T2 sequence (P48371 whole entry D95G): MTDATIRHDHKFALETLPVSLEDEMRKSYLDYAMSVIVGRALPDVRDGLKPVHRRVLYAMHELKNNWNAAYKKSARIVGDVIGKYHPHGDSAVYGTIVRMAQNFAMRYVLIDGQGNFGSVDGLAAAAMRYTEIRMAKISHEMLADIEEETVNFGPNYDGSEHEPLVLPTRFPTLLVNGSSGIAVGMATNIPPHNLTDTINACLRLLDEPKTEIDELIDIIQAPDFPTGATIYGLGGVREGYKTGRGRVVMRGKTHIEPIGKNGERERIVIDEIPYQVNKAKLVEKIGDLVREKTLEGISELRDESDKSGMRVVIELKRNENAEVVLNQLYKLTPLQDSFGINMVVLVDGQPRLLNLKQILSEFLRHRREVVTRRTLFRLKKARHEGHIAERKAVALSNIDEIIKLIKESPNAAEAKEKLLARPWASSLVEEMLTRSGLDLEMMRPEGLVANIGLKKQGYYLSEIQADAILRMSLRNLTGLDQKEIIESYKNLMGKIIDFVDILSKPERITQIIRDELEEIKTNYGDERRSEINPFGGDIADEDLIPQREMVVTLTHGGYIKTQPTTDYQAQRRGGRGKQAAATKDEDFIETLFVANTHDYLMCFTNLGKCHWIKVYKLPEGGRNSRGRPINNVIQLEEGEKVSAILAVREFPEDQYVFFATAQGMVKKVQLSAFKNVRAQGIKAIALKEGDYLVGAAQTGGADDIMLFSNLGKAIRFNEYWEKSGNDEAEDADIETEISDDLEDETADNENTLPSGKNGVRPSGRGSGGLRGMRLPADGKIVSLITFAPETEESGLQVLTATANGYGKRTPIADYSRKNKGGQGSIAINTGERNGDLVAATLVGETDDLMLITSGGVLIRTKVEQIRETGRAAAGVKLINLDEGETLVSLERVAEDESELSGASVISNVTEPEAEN
# T2 sequence (P22118 whole entry partner): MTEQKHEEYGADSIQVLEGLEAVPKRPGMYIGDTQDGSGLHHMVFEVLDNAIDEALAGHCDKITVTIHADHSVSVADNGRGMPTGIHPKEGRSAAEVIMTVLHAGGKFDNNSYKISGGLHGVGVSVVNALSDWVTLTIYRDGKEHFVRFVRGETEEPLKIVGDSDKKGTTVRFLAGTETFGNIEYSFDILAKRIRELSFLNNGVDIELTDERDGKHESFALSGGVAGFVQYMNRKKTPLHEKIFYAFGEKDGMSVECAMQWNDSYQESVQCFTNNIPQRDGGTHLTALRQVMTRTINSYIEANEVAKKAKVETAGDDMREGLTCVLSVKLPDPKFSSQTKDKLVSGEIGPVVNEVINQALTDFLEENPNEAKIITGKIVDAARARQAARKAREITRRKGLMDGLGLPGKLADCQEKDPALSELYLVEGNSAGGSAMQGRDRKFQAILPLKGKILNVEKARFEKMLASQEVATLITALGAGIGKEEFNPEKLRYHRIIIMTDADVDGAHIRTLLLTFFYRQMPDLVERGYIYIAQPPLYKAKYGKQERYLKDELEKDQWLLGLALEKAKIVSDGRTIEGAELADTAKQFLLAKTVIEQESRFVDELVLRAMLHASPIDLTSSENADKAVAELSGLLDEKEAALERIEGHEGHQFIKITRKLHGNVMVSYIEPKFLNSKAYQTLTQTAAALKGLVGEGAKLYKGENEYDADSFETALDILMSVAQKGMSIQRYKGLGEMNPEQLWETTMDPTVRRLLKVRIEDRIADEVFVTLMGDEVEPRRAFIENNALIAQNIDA
# T1 sequence (P48371 whole entry S91F/D95G): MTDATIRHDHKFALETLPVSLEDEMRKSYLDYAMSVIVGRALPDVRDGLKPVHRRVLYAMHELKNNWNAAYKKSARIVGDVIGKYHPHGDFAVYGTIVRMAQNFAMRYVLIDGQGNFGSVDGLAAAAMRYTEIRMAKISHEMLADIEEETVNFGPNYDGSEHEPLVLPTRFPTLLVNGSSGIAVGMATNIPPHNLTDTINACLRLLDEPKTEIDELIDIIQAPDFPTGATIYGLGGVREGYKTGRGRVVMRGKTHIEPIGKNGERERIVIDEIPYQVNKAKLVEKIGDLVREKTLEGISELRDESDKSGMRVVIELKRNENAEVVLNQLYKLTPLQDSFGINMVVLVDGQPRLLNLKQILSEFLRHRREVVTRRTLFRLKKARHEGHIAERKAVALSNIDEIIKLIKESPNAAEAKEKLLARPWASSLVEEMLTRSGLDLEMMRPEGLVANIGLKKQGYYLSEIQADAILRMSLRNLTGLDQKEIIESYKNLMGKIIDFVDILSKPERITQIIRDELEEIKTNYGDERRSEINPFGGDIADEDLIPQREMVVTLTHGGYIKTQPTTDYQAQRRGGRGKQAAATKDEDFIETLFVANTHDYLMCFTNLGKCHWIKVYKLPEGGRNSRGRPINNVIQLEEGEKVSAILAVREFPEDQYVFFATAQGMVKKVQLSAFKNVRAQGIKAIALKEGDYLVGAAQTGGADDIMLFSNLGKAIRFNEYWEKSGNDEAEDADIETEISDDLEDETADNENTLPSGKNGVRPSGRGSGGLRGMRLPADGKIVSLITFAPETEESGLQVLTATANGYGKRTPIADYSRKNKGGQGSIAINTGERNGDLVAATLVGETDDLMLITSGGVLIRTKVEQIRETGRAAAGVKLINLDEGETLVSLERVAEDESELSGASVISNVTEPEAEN
# T1 sequence (P22118 whole entry partner): as the sequence (P22118 whole entry partner) above
smiles,measurement,setting,value
O=c1ccc2ncc(=O)n3c2n1C[C@H]3CN1CCC(NCc2cc3c(cn2)OCCC3)CC1 [gepotidacin],MIC,[1]; Neisseria gonorrhoeae,> 64 µg/mL
same,fold-change in MIC from WT/WT parental strain,[1]; strain FA1090E-5 vs FA1090E,> 128 fold
same,IC50,[2],3600 ± 2400 nM
same,fold greater potency (IC50) against topoisomerase IV over gyrase,[3],~2.8 fold
same,"Adj-Max Cleavage, single-stranded DNA breaks",[4],17.9%
same,EC50,"[4]; GyrA D95G gyrase, read-out: CC50, single-stranded DNA cleavage",1300 nM
same,single-stranded DNA cleavage compared with WT gyrase,[4]; GyrA D95G vs WT,nearly indistinguishable
